Measured values reported in article PMC7281206, “Cysteine Cathepsins Inhibition Affects Their Expression and Human Renal Cancer Cell Phenotype” (Cancers, 2020).

Legend:
[1] = system: pancreatic cells; details: 48 and 72 h; ref [58]; cited from earlier work
Source text: In general, Cts inhibitors cannot be considered very potent cytostatic molecules. H ...

[2] = system: 769-P cells; experiment: Cell viability with paclitaxel (MTT), 769-P; assay type: cell-based, human; details: PXT alone, 100 nM, 72 h
Description: (§1) To evaluate the inhibitory properties of the peptides directly on the human renal cancer cells, we firstly assessed the impact of Ac-PLVE-FMK and Ac-VLPE-FMK on the cell viability of 769-P and A498 cells to determine the working concentrations for further experiments. […] Further experiments were performed using a concentration of 20 μM. To understand if the peptides could affect the activity of caspase proteases, we tested their effect on cell viability in combination with the chemotherapeutic paclitaxel (PXT) in both the cell lines. […] Next, we evaluated the effect of the peptides on renal cancer cell proteolytic activity against the fluorogenic probe Ac-PLVQ-AMC. In this case, 769-p and A498 cells were treated for 30 min with Ac-PLVE-FMK or Ac-VLPE-FMK and were then exposed for 10 min to the substrate Ac-PLVQ-AMC prior fluorescence microscopy analysis (Figure 3c,d).
(§2) The cell number was evaluated by counting viable cells using the MTT (3-(4,5-dimethylthiazol-2-yl)-2,5-diphenyltetrazolium bromide) colorimetric assay. A total of 2 × 10^4 cells/well were seeded on independent 96-well plates for each time point (0, 24, 48, and 72 h), with five replicates and treated with two inhibitors (2.5–250 μM). Then, 10 µL of the MTT reagent was added to each well, and cells were incubated for another 5 h. Next, the absorbance value was measured using a CLARIOstar® Plus plate reader (BMG Labtech, Ortenberg, Germany) at 490 nm. Triplicate wells were assayed, and S.D.s were determined.
Figure S3. Combined effect of PXT and the inhibitors on 769‐P proliferation: 769‐P cells were treated with 100 nM of PXT alone or in combination with 20 μM of Ac‐PLVE and Ac‐VLPE and cell proliferation was measured after 24, 48, and 72 h via MTT assay. Data represent the mean (± S.D.) of three independent experiments, each performed in triplicate.
Figure S4. Spheroids size and circularity: (a,b) size and circularity of 769‐P and (c,d) A498 cells upon treatment with Ac‐PLVE‐FMK and Ac‐VLPE‐FMK. Data represent the mean (± S.D.) of three independent experiments, each performed in triplicate. […]

[3] = system: A498 cells; experiment: Cell mortality with paclitaxel, A498; assay type: cell-based, human; details: PXT alone (data not shown)
Description: as §1
as §2, with “Then, 10 µL of the MTT reagent was added to each well, and cells were incubated for another 5 h.” left out

[4] = system: human recombinant CtsB; experiment: Fluorescent protease activity assay, recombinant CtsB; assay type: biochemical; details: 20 nM CtsB, 50 μM substrate, no inhibitor
Description: (§3) Ac-PLVE-FMK and Ac-VLPE-FMK inhibitory properties were evaluated against human recombinant CtsL and B. These recombinant enzymes were expressed in E. coli via plasmid transformation and further purification, using nickel-nitrilotriacetic acid (Ni-NTA) sepharose. Gel zymography assay was used to provide a preliminary evaluation of the ability of these recombinant proteins to degrade the gelatin substrate previously embedded in the gel (Supplementary Figure S1). Following Coomassie staining, the Cts were detectable as single bands. As expected, a translucent area was evident, due to the substrate digestion in the proximity of the proteins. Then, the recombinant proteins were tested for their ability to digest the Triticain-α substrate Ac-PLVQ via fluorescent protease activity assay, previously optimized by our group. This probe was conjugated with the fluorogenic chromophore 7-amino-4-methylcoumarin (Ac-PLVQ-AMC). After proteolytic cleavage, it emits a detectable fluorescent signal.
(§4) Total RNA extract from retinoblastoma […] cells was used to obtain cDNA. A pair of oligonucleotides ([…] and […]) was used for the amplification of DNA fragment containing CtsB, the product of which was ligated into pET15b (Merck Millipore, Billerica, MA, USA) using NdeI and XhoI. DNA fragment containing CtsL was amplified using a pair of oligonucleotides ([…] and […]) and ligated into pET28a (+) (Merck Millipore, Billerica, MA, USA) using NheI and HindIII. […]
(§5) The activity of recombinant CtsL and B was detected by the hydrolysis of the fluorogenic substrate Ac-Pro-Leu-Val-Gln- 7-amino-4-methylcoumarin (AMC) (Pepmic Suzhou Jiangsu, China). […] The substrate was added to a final concentration of 50 μM, and its hydrolysis was continuously measured for 12 min using a CLARIOstar® Plus plate reader (BMG Labtech Ortenberg Baden-Württemberg, Germany) at excitation and emission wavelengths of 353 and 442 nm, respectively.

[5] = system: human recombinant CtsL; experiment: Fluorescent protease activity assay, recombinant CtsL; assay type: biochemical; details: 20 nM CtsL, 50 μM substrate, no inhibitor
Description: as §3, §4, §5

For CC(C)C[C@H](NC(=O)[C@H]1O[C@@H]1C(=O)O)C(=O)NCCCCN=C(N)N [E64], the Cytotoxic effect [1] is given as “only a moderated cytotoxic effect, which reached a plateau phase after 48 and 72 h”.

In the case of CC(=O)O[C@H]1C(=O)[C@@]2(C)[C@H]([C@H](OC(=O)c3ccccc3)[C@]3(O)C[C@H](OC(=O)[C@H](O)[C@@H](NC(=O)c4ccccc4)c4ccccc4)C(C)=C1C3(C)C)[C@]1(OC(C)=O)CO[C@@H]1C[C@@H]2O [PXT, paclitaxel, reference compound], the “Ability to kill cancer cells” value [2] is reported as “the ability of the PXT to kill cancer cells was evident after 72 h of treatment at a concentration of 100 nM” and the Cell mortality [3] is reported as “did not result in high mortality”.

In the case of “Ac-Pro-Leu-Val-Gln- 7-amino-4-methylcoumarin (AMC) [Ac-PLVQ-AMC, fluorogenic Triticain-α substrate conjugated with 7-amino-4-methylcoumarin, reference compound]”, the Substrate cleavage [4] is reported as “able to cleave the probe” and the Substrate cleavage [5] is reported as “able to cleave the probe”.
